Each structure is given as a SMILES string.

The assay relates to Glomerulonephritis. The experiment in a line: Action on glomerulonephritis in rats. It counts as in vivo, rat (Wistar strain, male). The conditions noted are these: 10 mg/kg p.o./day. The text has this: (ii) Action on glomerulonephritis in rats
Glomerulonephritis was induced in Wistar strain male rats (each weighing 180 to 200 g) by use of an anti-rat's kidney rabbit serum obtained from the serum of a rabbit sensitized with a homogenate of rat's kidney cortice. To the rat producing stable proteinuria was orally administered the test compound repeatedly at the rate shown in Table 12 for 2 weeks, and the inhibition of uric protein was examined.

`CC(=O)OCC(=O)[C@@]1(O)CC[C@H]2[C@@H]3CCC4=CC(=O)CC[C@]4(C)[C@H]3[C@@H](O)C[C@@]21C` [Hydrocortisone acetate]: the “Inhibition of uric protein” value (7th day) turned out to be 20.0% and the “Inhibition of uric protein” value (14th day) came to 29.0%.

For the origin of these results see patent US4230719A, “Novel 2-[4-(3-methyl-2-thienyl)phenyl]propionic acid and pharmaceutically acceptable salt thereof and method for treating symptoms of inflammation and pain” (Toyama Chemical Co., Ltd., priority 1977, dated 1980).
